Patent US20080267948A1, “Croos-B Structure Binding Compounds” (priority 2005, published 2008)
Entries after “also recorded” stand apart in the source; their conditions may differ.

What was measured:
[1] = biological target: T1, heat-denatured misfolded ovalbumin (DOVA) (Gallus gallus, UniProt P01012); assay: ELISA binding of tPA to immobilized misfolded ovalbumin after pre-incubation with compounds; set-up: species or system chicken; conditions: misfolded OVA first overlayed with compound (concentration series), then tPA
T1 construct: purchased Sigma A5503
T1 sequence (P01012 2-386 limits assumed): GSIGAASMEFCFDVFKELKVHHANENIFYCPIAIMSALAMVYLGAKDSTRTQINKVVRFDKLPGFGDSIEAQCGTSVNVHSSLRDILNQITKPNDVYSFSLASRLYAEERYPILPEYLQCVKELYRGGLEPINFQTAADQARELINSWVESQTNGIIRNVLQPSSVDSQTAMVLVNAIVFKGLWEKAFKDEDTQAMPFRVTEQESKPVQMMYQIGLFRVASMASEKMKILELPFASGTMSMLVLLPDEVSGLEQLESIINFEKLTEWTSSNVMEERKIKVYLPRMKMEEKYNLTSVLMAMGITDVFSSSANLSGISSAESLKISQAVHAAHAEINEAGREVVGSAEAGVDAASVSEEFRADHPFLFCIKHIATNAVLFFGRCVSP
Description: Compounds were now diluted 10× in PBS/0.1% Tween20 (500 μg/ml compound). […] With this approach a further selection of the compounds was achieved. Now, compounds that at least interact with HB-AGE are selected. With the selection, similar binding assays are performed with misfolded OVA and Aβ. Finally, concentration series of the selected compounds are used in the binding studies.

heat-denatured ovalbumin = biological target: T2, heat-denatured ovalbumin (Gallus gallus, UniProt P01012); assay: Thioflavin T fluorescence of ovalbumin and small compounds; set-up: species or system chicken; conditions: 1 mg/ml compound, 1 mg/ml OVA
T2 construct: purchased Sigma A5503
T2 sequence (P01012 1-386): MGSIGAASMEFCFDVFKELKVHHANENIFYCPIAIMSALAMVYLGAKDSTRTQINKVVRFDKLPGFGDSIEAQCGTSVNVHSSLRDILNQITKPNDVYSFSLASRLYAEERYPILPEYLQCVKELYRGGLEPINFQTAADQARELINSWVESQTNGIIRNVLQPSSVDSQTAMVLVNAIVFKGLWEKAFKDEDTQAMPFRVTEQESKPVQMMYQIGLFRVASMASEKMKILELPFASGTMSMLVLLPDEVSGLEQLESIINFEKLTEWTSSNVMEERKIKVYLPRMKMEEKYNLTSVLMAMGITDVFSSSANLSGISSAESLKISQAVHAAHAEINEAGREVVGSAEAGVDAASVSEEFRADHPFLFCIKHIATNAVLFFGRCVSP
In short: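 Heat-denatured ovalbumin at 1 mg/ml in PBS, alone, with 1% v/v DMSO or with 1 mg/ml compound (also heat-denatured after compound addition), mixed 1:9 with 25 μM ThT in 50 mM glycine pH 9.0. Fluorescence read in duplicate at 435 nm excitation, 485 nm emission.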

[2] = test system: misfolded proteins (Hb-AGE, Aβ); assay: Binding of misfolded proteins from solution to immobilized small compounds (overall); conditions: compounds coated on ELISA plates, Hb-AGE or Aβ in solution
Description: (§1) To test the ability of the twelve selected compounds (see Table 7) to bind to misfolded proteins, the compounds were immobilized at 10/100/1000 μg/ml in the wells of 96-wells Greiner Microlon high binding plates, Nunc amino Immobilizer plates and Nunc Maxisorp plates. Compounds were coated in 100 mM NaHCO3 pH 9.6, 50 μl/well, 1 h at room temperature with agitation. As a control, wells were coated with buffer only. After blocking of the plates, wells were overlayed with solutions of 0.1/1/10 μg/ml Hb-AGE or 10/100 μg/ml Aβ, in binding buffer (PBS/0.1% Tween20). After washing, binding of Hb-AGE was assessed by overlaying wells with 1 μg/ml hybridoma antibody 4B5, which binds to glycations(^2), followed by RAMPO. Binding of Aβ was visualized using 500× diluted anti-Aβ antibodies (mouse antibody beta-amyloid Clone 6F/3D #M0872, lot 00003503, DAKOCytomation; β-amyloid (H-43) SC-9129, 200 μg/ml rabbit polyclonal IgG, Santa Cruz Biotechnology) and RAMPO/SWARPO in a 1:1 ratio. Finally, wells were overlayed with OPD/H2O2 solution, and H2SO4, before absorbance readings at 490 nm.

Aβ = biological target: T3, Aβ (Homo sapiens, UniProt P05067, E693Q); assay: Binding of Aβ from solution to immobilized small compounds; conditions: Greiner Microlon, coat 100 μg/ml, Aβ 100 μg/ml
T3 construct: Lyophilized human amyloid-β(1-40) with E22Q mutation ‘Dutch type’; purchased Peptide facility, Dutch Cancer Institute, Amsterdam; host or cells: synthetic peptide
Description: as §1, with “the compounds were immobilized at 10/100/1000 μg/ml in the wells of 96-wells” left out

tPA/plasminogen = biological target: T4, tPA/plasminogen (Homo sapiens, UniProt P00750); assay: tPA/plasminogen activation by OVA heated in the presence of compounds (substrate PNAPEP1751); assay type: biochemical; conditions: 25 μg/ml OVA, 25 μg/ml compound, […] DMSO
T4 construct: purchased Boehringer Ingelheim Actilyse
T4 sequence (P00750 36-562): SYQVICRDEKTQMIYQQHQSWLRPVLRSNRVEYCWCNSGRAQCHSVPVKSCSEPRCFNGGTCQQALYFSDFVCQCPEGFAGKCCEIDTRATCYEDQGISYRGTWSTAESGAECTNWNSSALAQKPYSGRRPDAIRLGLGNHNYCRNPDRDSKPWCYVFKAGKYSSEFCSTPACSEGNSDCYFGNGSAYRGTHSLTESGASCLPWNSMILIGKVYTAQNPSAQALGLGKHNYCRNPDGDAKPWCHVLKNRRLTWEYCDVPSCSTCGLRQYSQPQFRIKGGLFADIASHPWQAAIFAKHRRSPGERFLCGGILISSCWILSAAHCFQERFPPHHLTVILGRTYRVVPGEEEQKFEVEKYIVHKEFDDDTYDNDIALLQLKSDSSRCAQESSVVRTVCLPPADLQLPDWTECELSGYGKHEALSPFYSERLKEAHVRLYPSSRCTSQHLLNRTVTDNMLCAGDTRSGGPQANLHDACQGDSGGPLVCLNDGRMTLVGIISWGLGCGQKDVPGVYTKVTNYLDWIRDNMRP
In short: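 Ovalbumin heated alone in PBS/1% DMSO (positive control) or with compounds at 1 mg/ml, then used 40-fold diluted in a tPA/plasminogen activation assay; buffer without OVA as negative control. Chromogenic substrate conversion read at 405 nm, with compound interference at 405 nm checked; signals related to control.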

ovalbumin = biological target: T5, ovalbumin (Gallus gallus, UniProt P01012); assay: Transmission electron microscopy of ovalbumin heated in the presence of small compounds; set-up: species or system chicken; conditions: 1 mg/ml ovalbumin heated with 1 mg/ml compound
T5 construct: purchased Sigma A5503
T5 sequence (P01012 1-386): T2 sequence (P01012 1-386)
In short: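 Ovalbumin at 1 mg/ml was applied to carbon-coated Formvar copper grids, washed with PBS and water, then stained 2 min in 2% methylcellulose with 0.4% uranyl acetate, pH 4. Grids were dried and imaged by TEM at 80 kV.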

[3] = information found on the www, search completed Spring 2006; cited from earlier work
tPA = tPA (Homo sapiens, UniProt P00750); assay: Plasminogen activation assay (tPA-mediated conversion of Plg to plasmin); assay type: biochemical; set-up: purchased Boehringer-Ingelheim Actilyse; conditions: 100 μg ml^−1 protein or peptide, 400 pM tPA, substrate S-2251
Chain of tPA (P00750 36-562): as above
Description: Plasmin (Plm) activity was assayed as described^4. Peptides and proteins that were tested for their stimulatory ability were used at 100 μg ml^−1, unless stated otherwise. […] Chromogenic substrate S-2251 (Chromogenix, Instrumentation Laboratory SpA, Milano, Italy) was used to measure Pls activity.
Purification of β2-glycoprotein I (β2GPI) was performed according to established methods^15,16. Recombinant human β2GPI was made using insect cells and purified as described^15. Plasma derived β2GPI as used in a factor XII ELISA, the Plg-activation assay and in the anti-phospholipid syndrome antibody ELISA (see below), was purified from fresh human plasma as described^16. […]
Solutions of fibrin peptide FP6, NH2—IDIKIR-COOH (Peptide facility, Dutch Cancer Institute, Amsterdam, the Netherlands) were prepared in various ways. […] Separate samples were prepared similarly and analyzed by electron spray ionization mass spectrometry (ESI-MS) to obtain information on the distribution of the peptide over putatively present oligomers (Dr C. Versluis, Department of Biomolecular Mass Spectrometry, Bijvoet Center for Biomolecular Research, Utrecht University, Utrecht, The Netherlands). […] Micrographs were recorded at 80 kV, at suitable magnifications on a JEM-1200EX electron microscope (JEOL, Japan).

Molecule	influence on tPA binding to immobilized misfolded OVA [1]	influence on Thioflavin T fluorescence with misfolded OVA (heat-denatured ovalbumin)	capture of misfolded protein from solution by immobilized compound [2]	Signal (a.u.) (Aβ)	influence on tPA/plasminogen activation by OVA pre-heated in the presence of compound (tPA/plasminogen)	appearance of ovalbumin heated in the presence of compound on TEM image (ovalbumin)	Use or activity in vitro/in vivo [3]	stimulation of tPA-mediated conversion of Plg to plasmin (tPA)
COc1cc2c(C=O)c3c4c(cc(OC)c(OC)c4c2cc1OC)CCN3C [compound 214, dehydroglaucine derivative]	Stimulated tPA binding to immobilized misfolded protein	Inhibition of Thioflavin T fluorescence with misfolded OVA	Capture of misfolded protein from solution	0.14 a.u.	Inhibition of tPA/plasminogen activation by OVA pre-heated	Smaller but more dense aggregates than in Control	inhibitory effect on lipopolysaccharide (LPS)-induced; also recorded: protection of plants from invasion by micro-organisms; also recorded: antimicrobial activity; also recorded: decrease in the blood pressure after applying intravenously; also recorded: bronchoconstrictor effect; also recorded: inhibitory action on the central nervous system	–
H-IDIKIR-OH [FP6, reference compound]	–	–	–	–	–	–	–	activates tPA in the chromogenic plasmin activity assay
